Laboratory results as given in patent US8865734B2 (priority 2010, dated 2014).
In brackets after ≈: the same amount, converted by molar mass.

How the values were obtained:
[1] = test system: M. tuberculosis inside the host macrophage; experiment: QIM: Quantification of Intracellular Mycobacteria (intracellular growth assay, phenotypic cell-based); conditions: Mycobacterium tuberculosis; MIC, 80% bacterial growth inhibition; intracellular growth; read-out: QIM
In short: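 Phenotypic high-content assay measuring M. tuberculosis multiplication inside host macrophages, run as dose response. MIC is the minimum compound concentration giving 80% bacterial growth inhibition.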

[2] = test system: in vitro grown Mycobacteria (M. tuberculosis); experiment: QUM: Quantification of in vitro grown Mycobacteria (in vitro growth fluorescence assay); format: cell-based; conditions: Mycobacterium tuberculosis; MIC, 80% bacterial growth inhibition; in vitro growth; read-out: QUM
In short: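 Mycobacterium tuberculosis grown in vitro was quantified by fluorescence across compound dose responses. MIC is defined as the minimum concentration producing 80% growth inhibition.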

SMILES	melting point [°C]	MIC [1] [µM]	MIC [2] [µM]
CCc1nc2ccc(Cl)cn2c1C(=O)NCc1ccc(C#N)cc1 [Compound 146, 6-Chloro-N-(4-cyanobenzyl)-2-ethylimidazo[1,2-a]pyridine-3-carboxamide]	223 to 224	1 to 20 (≈ 0.339 to 6.78 µg/mL)	> 20
CCc1nc2ccc(Cl)cn2c1C(=O)OCc1ccc(-c2ccccc2)cc1 [Compound 161, [1,1′-Biphenyl]-4-ylmethyl 6-chloro-2-ethylimidazo[1,2-a]pyridine-3-carboxylate]	122.3 to 123	< 1	< 1
CCc1nc2cc(C)ccn2c1C(=O)NCc1ccc2ccccc2c1 [Compound 69, 2-Ethyl-7-methyl-N-(naphthalen-2-ylmethyl)imidazo[1,2-a]pyridine-3-carboxamide]	192	< 1	1 to 20 (≈ 0.343 to 6.87 µg/mL)
CCc1nc2c[n+]([O-])ccn2c1C(=O)NCc1ccc(OC(F)(F)F)cc1 [Compound 156, 2-Ethyl-3-((4-(trifluoromethoxy)benzyl)carbamoyl)imidazo[1,2-a]pyrazine 7-oxide]	215 to 216	> 20	> 20
CCc1nc2c[n+]([O-])ccn2c1C(=O)NCc1ccc(-c2ccc(Cl)cc2)cc1 [Compound 160, 3-(((4′-Chloro-[1,1′-biphenyl]-4-yl)methyl)carbamoyl)-2-ethylimidazo[1,2-a]pyrazine 7-oxide]	238	> 20	> 20
CCc1nc2cc(Cl)ccn2c1C(=O)NCc1ccc(N2CCN(Cc3ccc(OC(F)(F)F)cc3)CC2)cc1 [Compound 174, 7-Chloro-2-ethyl-N-(4-(4-(4-(trifluoromethoxy)benzyl)piperazin-1-yl)benzyl)imidazo[1,2-a]pyridine-3-carboxamide]	137.1 to 137.6	< 1	< 1
CCc1nc2cc(Cl)ccn2c1C(=O)NCc1ccc(N2CCOCC2)cc1 [Compound 89, 7-Chloro-2-ethyl-N-(4-morpholinobenzyl)imidazo[1,2-a]pyridine-3-carboxamide]	195	1 to 20 (≈ 0.399 to 7.98 µg/mL)	< 1
CCc1nc2cc(N3CCN(c4ccccc4)CC3)ccn2c1C(=O)NCc1ccc(C(F)(F)F)cc1 [Compound 330, 2-Ethyl-7-(4-phenylpiperazin-1-yl)-N-(4-(trifluoromethyl)benzyl)imidazo[1,2-a]pyridine-3-carboxamide]	235.2	< 1	> 20
CCc1nc2ccc(Cl)cn2c1C(=O)NCc1ccc(Oc2ccc(Cl)cc2)cc1 [Compound 190, 6-Chloro-N-(4-(4-chlorophenoxy)benzyl)-2-ethylimidazo[1,2-a]pyridine-3-carboxamide]	159 to 160.7	< 1	< 1
CCc1nc2cc(Cl)ccn2c1C(=O)NCc1ccc(N2CCC(Oc3ccc(F)cc3)CC2)cc1 [Compound 167, 7-Chloro-2-ethyl-N-(4-(4-(4-fluorophenoxy)piperidin-1-yl)benzyl)imidazo[1,2-a]pyridine-3-carboxamide]	138 to 139	< 1	< 1
CCc1nc2ccccn2c1C(=O)NCc1ccc(/N=C/c2ccc(OC(F)(F)F)cc2)cc1 [Compound 261]	194	> 20	> 20
CCc1nc2cc(Cl)ccn2c1C(=O)NCc1ccc(N2CCN(c3ccc(F)cc3)CC2)cc1 [Compound 176, 7-Chloro-2-ethyl-N-(4-(4-(4-fluorophenyl)piperazin-1-yl)benzyl)imidazo[1,2-a]pyridine-3-carboxamide]	212 to 213	< 1	< 1
CCc1nc2ccc(Cl)cn2c1C(=O)NC1CCN(Cc2ccc(OC(F)(F)F)cc2)CC1 [Compound 229, 6-Chloro-2-ethyl-N-(1-(4-(trifluoromethoxy)benzyl)piperidin-4-yl)imidazo[1,2-a]pyridine-3-carboxamide]	157 to 158	> 20	> 20
CCc1nc2ccc(Cl)cn2c1-c1nc(Cc2ccc(OC(F)(F)F)cc2)no1 [Compound 243, 5-(6-Chloro-2-ethylimidazo[1,2-a]pyridin-3-yl)-3-(4-(trifluoromethoxy)benzyl)-1,2,4-oxadiazole]	146.4 to 146.9	> 20	> 20
CCc1nc2cc(N3CCN(Cc4ccc(F)cc4)CC3)ccn2c1C(=O)NCc1ccc(N2CCOCC2)cc1 [Compound 331, 2-Ethyl-7-(4-(4-fluorobenzyl)piperazin-1-yl)-N-(4-morpholinobenzyl)imidazo[1,2-a]pyridine-3-carboxamide]	212.5	> 20	> 20
CCc1nc2cc(Cl)ccn2c1C(=O)NCc1ccc(Oc2ccc(Cl)cc2)cc1 [Compound 191, 7-Chloro-N-(4-(4-chlorophenoxy)benzyl)-2-ethylimidazo[1,2-a]pyridine-3-carboxamide]	167.1 to 167.9	< 1	< 1

SMILES	melting point [°C]	MIC [1] [µM]	MIC [2] [µM]
CCc1nc2cc(Cl)ccn2c1C(=O)NCc1ccc(N2CCC(COC)CC2)cc1 [Compound 282, 7-Chloro-2-ethyl-N-(4-(4-(methoxymethyl)piperidin-1-yl)benzyl)imidazo[1,2-a]pyridine-3-carboxamide]	172.5	< 1	< 1
CCc1nc2ccccn2c1C(=O)NCc1ccc(N2CCN(c3ccc(F)cc3)CC2)cc1 [Compound 303, 2-Ethyl-N-(4-(4-(4-fluorophenyl)piperazin-1-yl)benzyl)imidazo[1,2-a]pyridine-3-carboxamide]	189.2	< 1	< 1
CCc1nc2cc(Cl)ccn2c1C(=O)NCc1ccc(N2CCN3CCCC3C2)cc1 (centres unmarked) [Compound 265, 7-Chloro-2-ethyl-N-(4-(hexahydropyrrolo[1,2-a]pyrazin-2(1H)-yl)benzyl)imidazo[1,2-a]pyridine-3-carboxamide]	159.1		> 20
CCc1nc2cc(Cl)ccn2c1C(=O)NCc1ccc(N2CCC(O)(c3ccc(F)cc3)CC2)cc1 [Compound 342, 7-Chloro-2-ethyl-N-(4-(4-(4-fluorophenyl)-4-hydroxypiperidin-1-yl)benzyl)imidazo[1,2-a]pyridine-3-carboxamide]	199		< 1
CCc1nc2cc(Cl)ccn2c1C(=O)NCc1ccc2oc(C3CCCCC3)nc2c1 [Compound 340, 7-Chloro-N-((2-cyclohexylbenzo[d]oxazol-5-yl)methyl)-2-ethylimidazo[1,2-a]pyridine-3-carboxamide]	163		< 1
CCc1nc2c(OC(F)F)cccn2c1C(=O)NCc1ccc(N2CCN(c3ccc(F)cc3)CC2)cc1 [Compound 304, 8-(Difluoromethoxy)-2-ethyl-N-(4-(4-(4-fluorophenyl)piperazin-1-yl)benzyl)imidazo[1,2-a]pyridine-3-carboxamide]	186.3		< 1
CCc1nc2ccc(Cl)cn2c1C(=O)NCc1ccc(N2CCC(O)(c3ccc(F)cc3)CC2)cc1 [Compound 341, 6-Chloro-2-ethyl-N-(4-(4-(4-fluorophenyl)-4-hydroxypiperidin-1-yl)benzyl)imidazo[1,2-a]pyridine-3-carboxamide]	173.5		< 1
CCc1nc2cc(Cl)ccn2c1C(=O)NCc1cccc(-c2ccc(OC(F)(F)F)cc2)c1 [Compound 248, 7-Chloro-2-ethyl-N-((4′-(trifluoromethoxy)biphenyl-3-yl)methyl)imidazo[1,2-a]pyridine-3-carboxamide]	192.6		< 1
CCc1nc2cc(Cl)ccn2c1C(=O)NCc1ccc(N2CCC(Cc3ccccc3)CC2)cc1 [Compound 294, N-(4-(4-Benzylpiperidin-1-yl)benzyl)-7-chloro-2-ethylimidazo[1,2-a]pyridine-3-carboxamide]	63.8		1 to 20 (≈ 0.487 to 9.74 µg/mL)
CCc1nc2ccc(Cl)cn2c1C(=O)NCc1ccc2oc(C3CCCCC3)nc2c1 [Compound 339, 6-Chloro-N-((2-cyclohexylbenzo[d]oxazol-5-yl)methyl)-2-ethylimidazo[1,2-a]pyridine-3-carboxamide]	169.7		< 1
CCc1nc2cc(Cl)ccn2c1C(=O)NCc1ccc(N2CCC(COc3ccc(OC(F)(F)F)cc3)CC2)cc1 [Compound 299, 7-Chloro-2-ethyl-N-(4-(4-((4-(trifluoromethoxy)phenoxy)methyl)piperidin-1-yl)benzyl)imidazo[1,2-a]pyridine-3-carboxamide]	189.5		< 1
CCc1nc2cc(C)ccn2c1C(=O)NCc1ccc(Oc2ccc(OC(F)(F)F)cc2)cc1 [Compound 256, 2-Ethyl-7-methyl-N-(4-(4-(trifluoromethoxy)phenoxy)benzyl)imidazo[1,2-a]pyridine-3-carboxamide]	133.6		< 1
CCc1nc2ccccn2c1C(=O)NCc1ccc(N2CCC(c3ccc(OC(F)(F)F)cc3)CC2)cc1 [Compound 288, 2-Ethyl-N-(4-(4-(4-(trifluoromethoxy)phenyl)piperidin-1-yl)benzyl)imidazo[1,2-a]pyridine-3-carboxamide]	146		< 1
C=C1CCN(c2ccc(CNC(=O)c3c(CC)nc4cc(Cl)ccn34)cc2)CC1 [Compound 271, 7-Chloro-2-ethyl-N-(4-(4-methylenepiperidin-1-yl)benzyl)imidazo[1,2-a]pyridine-3-carboxamide]	168.3		< 1
CCc1nc2cc(Cl)ccn2c1C(=O)NCc1ccc(N2CCC3CCCCC3C2)cc1 (centres unmarked) [Compound 268, 7-Chloro-2-ethyl-N-(4-(octahydroisoquinolin-2(1H)-yl)benzyl)imidazo[1,2-a]pyridine-3-carboxamide]	174.2		< 1
